From patent US20060166900A1, “Salt of morphine-6-glucuronide” (CeNeS Limited, priority 2002, published 2006)

Experiments:
Assay type in all cases: physicochemical
[1] = Stability of M6G salts at room temperature over 6 years, HPLC; details: for Assay M6G corr.: content calculated as M6G derivative
[2] = Visual appearance on storage (Example 3)
Protocol: (§1) Each test material was stored between 2-8*C prior to placing on stability. Each material was sub-divided into 900 mg aliquots, transferred to brown opaque HDPE plastic bottles and flushed with Argon prior to sealing. Sufficient samples were provided for each time point as well as spares for each storage condition. The samples were placed in appropriate incubators previously commissioned at storage conditions 25° C./60% RH, 40° C./75% RH and 60° C.
The samples were stored for analysis according to the following table: […]

[3] = Colour of solution by visible spectrophotometry on storage (Example 3); details: 5% w/v solution in water
Protocol: Colour of solution by UV spectrophotometry.
as §1
Colour by Visible Spectrophotometry
A 5% w/v solution of test material was prepared in water and the absorbance measured at 420 nm in a 1 cm silica cell using a Unicam UV4 Visible/UV spectrophotometer.

[4] = Water content by Karl Fisher analysis on storage (Example 3)
Protocol: Water content (% w/w) by Karl Fisher analysis
as §1
Water Content by Karl Fisher Analysis
Water content was determined in duplicate on an aliquot of equilibrated material (approximately 100 mg) using a Tritrino 720 KFS Titrator.

[5] = Stability indicating HPLC assay and related substances on storage (Example 3)
Protocol: Assay (% w/w) and related substances determination
as §1
Testing Procedures Test for Identity Content and Impurities
Testing was performed in duplicate (2×25 mg) in accordance with a stability indicating HPLC assay method. The assay results were reported as M6G as is, M6G as the anhydrous, solvent free material and the anhydrous solvent free material corrected for the salt form using the relevant conversion factor.

CN1CC[C@]23c4c5ccc(O)c4O[C@H]2[C@@H](O[C@@H]2O[C@H](C(=O)O)[C@@H](O)[C@H](O)[C@H]2O)C=C[C@H]3[C@H]1C5.Cl [Morphine-6-glucuronide hydrochloride]
HN-33177 ([1]; 0 years): 0.3%
HN-75083 ([1]; 0 years): <0.1%
Unknown related substances (sum area %) ([1]; 0 years): <0.1 area %
Assay M6G corr. ([1]; 0 years): 88.7%
HN-67002 ([1]; 6 years at ambient temperature): 1.3%
HN-67003 ([1]; 6 years at ambient temperature): 2.1%
Morphine ([1]; 6 years at ambient temperature): 0.2%
Unknown related substances (sum area %) ([1]; 6 years at ambient temperature): 9.2 area %
Assay M6G corr. ([1]; 6 years at ambient temperature): 74.8%
HN-33177 ([1]; 6 years at ambient temperature, hydrochloride): 0.2%
HN-33177 ([1]; 6 years at ambient temperature, listed as M6G.HCl, hydrochloride): remained unchanged
peaks present in the chromatogram that cannot be identified by retention time ([1]; almost 6 years at room temperature): 17
Appearance ([2]; 1 month, 25° C./60% RH): White crystalline powder
Appearance ([2]; 1 month, 40° C./75% RH): Slightly yellow crystalline powder
Appearance ([2]; 1 month, 60° C.): Pale yellow crystalline powder
Appearance ([2]; 3 months, 25° C./60% RH, hydrochloride): White crystalline powder
Appearance ([2]; 3 months, 25° C./60% RH, listed as hydrochloride, hydrochloride): white crystalline solids
Appearance ([2]; 3 months, 40° C./75% RH): Yellow crystalline powder
Appearance ([2]; Initial): White crystalline powder
Colour ([3]; 1 month, 25° C./60% RH): 0.147 Abs@420 nm
Colour ([3]; 1 month, 40° C./75% RH): 0.444 Abs@420 nm
Colour ([3]; 1 month, 60° C.): 1.183 Abs@420 nm
Colour ([3]; 3 months, 25° C./60% RH): 0.253 Abs@420 nm
Colour ([3]; 3 months, 40° C./75% RH): 2.107 Abs@420 nm
Colour ([3]; Initial): 0.059 Abs@420 nm
Moisture ([4]; 1 month, 25° C./60% RH): 5.10 % w/w
Moisture ([4]; 1 month, 40° C./75% RH): 6.24 % w/w
Moisture ([4]; 1 month, 60° C.): 4.44 % w/w
Moisture ([4]; 3 months, 25° C./60% RH): 6.06 % w/w
Moisture ([4]; 3 months, 40° C./75% RH): 9.02 % w/w
Moisture ([4]; Initial): 4.31 % w/w
Known Related Substances HN33177 ([5]; 1 month, 25° C./60% RH): 0.63%
Known Related Substances HN67003 ([5]; 1 month, 25° C./60% RH): 0.38%
Known Related Substances HN75076 ([5]; 1 month, 25° C./60% RH): 0.04%
Known Related Substances HN75083 ([5]; 1 month, 25° C./60% RH): 0.03%
M6G Assay, Anhydrous basis ([5]; 1 month, 25° C./60% RH): 92.03 % w/w
M6G Assay, As is basis ([5]; 1 month, 25° C./60% RH): 79.21 % w/w
M6G Assay, Corrected for the salt form ([5]; 1 month, 25° C./60% RH): 99.30 % w/w
Total Known ([5]; 1 month, 25° C./60% RH): 1.08%
Total Related Substances ([5]; 1 month, 25° C./60% RH): 2.41%
Total Unknown ([5]; 1 month, 25° C./60% RH): 1.33%
Known Related Substances HN33177 ([5]; 1 month, 40° C./75% RH): 0.41%
Known Related Substances HN67003 ([5]; 1 month, 40° C./75% RH): 3.01%
Known Related Substances HN75076 ([5]; 1 month, 40° C./75% RH): 0.34%
Known Related Substances HN75083 ([5]; 1 month, 40° C./75% RH): 0.07%
Known Related Substances Morphine ([5]; 1 month, 40° C./75% RH): 0.08%
M6G Assay, Anhydrous basis ([5]; 1 month, 40° C./75% RH): 81.39 % w/w
M6G Assay, As is basis ([5]; 1 month, 40° C./75% RH): 69.13 % w/w
M6G Assay, Corrected for the salt form ([5]; 1 month, 40° C./75% RH): 87.81 % w/w
Total Known ([5]; 1 month, 40° C./75% RH): 3.91%
Total Related Substances ([5]; 1 month, 40° C./75% RH): 15.16%
Total Unknown ([5]; 1 month, 40° C./75% RH): 11.25%
Known Related Substances HN33177 ([5]; 1 month, 60° C.): 0.12%
Known Related Substances HN67003 ([5]; 1 month, 60° C.): 3.55%
Known Related Substances HN75076 ([5]; 1 month, 60° C.): 0.55%
Known Related Substances HN75083 ([5]; 1 month, 60° C.): 0.03%
Known Related Substances Morphine ([5]; 1 month, 60° C.): 0.46%
M6G Assay, Anhydrous basis ([5]; 1 month, 60° C.): 75.78 % w/w
M6G Assay, As is basis ([5]; 1 month, 60° C.): 65.73 % w/w
M6G Assay, Corrected for the salt form ([5]; 1 month, 60° C.): 81.76 % w/w
Total Known ([5]; 1 month, 60° C.): 4.71%
Total Related Substances ([5]; 1 month, 60° C.): 20.94%
Total Unknown ([5]; 1 month, 60° C.): 16.23%
Known Related Substances HN33177 ([5]; 3 months, 25° C./60% RH): 0.50%
Known Related Substances HN67003 ([5]; 3 months, 25° C./60% RH): 1.31%
Known Related Substances HN75083 ([5]; 3 months, 25° C./60% RH): 0.03%
Known Related Substances Morphine ([5]; 3 months, 25° C./60% RH): 0.21%
M6G Assay, Anhydrous basis ([5]; 3 months, 25° C./60% RH): 87.71 % w/w
M6G Assay, As is basis ([5]; 3 months, 25° C./60% RH): 75.48 % w/w
M6G Assay, Corrected for the salt form ([5]; 3 months, 25° C./60% RH): 94.64 % w/w
Total Known ([5]; 3 months, 25° C./60% RH): 2.05%
Total Related Substances ([5]; 3 months, 25° C./60% RH): 9.52%
Total Unknown ([5]; 3 months, 25° C./60% RH): 7.47%
decrease in assay compared to initial ([5]; 3 months, 25° C./60% RH): around 6%
Known Related Substances HN33177 ([5]; 3 months, 40° C./75% RH): 0.07%
Known Related Substances HN67003 ([5]; 3 months, 40° C./75% RH): 3.71%
Known Related Substances HN75076 ([5]; 3 months, 40° C./75% RH): 1.67%
Known Related Substances HN75083 ([5]; 3 months, 40° C./75% RH): 0.01%
Known Related Substances Morphine ([5]; 3 months, 40° C./75% RH): 1.55%
M6G Assay, Anhydrous basis ([5]; 3 months, 40° C./75% RH): 61.41 % w/w
M6G Assay, As is basis ([5]; 3 months, 40° C./75% RH): 51.00 % w/w
M6G Assay, Corrected for the salt form ([5]; 3 months, 40° C./75% RH): 66.26 % w/w
Total Known ([5]; 3 months, 40° C./75% RH): 7.01%
Total Unknown ([5]; 3 months, 40° C./75% RH): 51.57%
drop in assay compared to the initial values ([5]; 3 months, 40° C./75% RH): approx 34%
Total Related Substances ([5]; 3 months, 40° C./75% RH, hydrochloride): 58.58%
Total Related Substances ([5]; 3 months, 40° C./75% RH, listed as hydrochloride, hydrochloride): around 54.5%
stability assessment ([5]; 40° C./75% RH over 3 months (base also 60° C. over 1 month)): least stable
Known Related Substances HN33177 ([5]; Initial): 0.63%
Known Related Substances HN67003 ([5]; Initial): 0.07%
Known Related Substances HN75076 ([5]; Initial): 0.01%
Known Related Substances HN75083 ([5]; Initial): 0.06%
M6G Assay, Anhydrous basis ([5]; Initial): 93.28 % w/w
M6G Assay, As is basis ([5]; Initial): 81.63 % w/w
M6G Assay, Corrected for the salt form ([5]; Initial): 100.65 % w/w
Total Known ([5]; Initial): 0.77%
Total Related Substances ([5]; Initial): 1.24%
Total Unknown ([5]; Initial): 0.47%
overall stability comparison ([5]; overall review of Example 3 data): least stable
